Measurements: patent US20260060982A1, “USE OF BTK INHIBITOR AND SINGLE-DOSE DRUG” (HUBEI BIO-PHARMACEUTICAL INDUSTRIAL TECHNOLOGICAL INSTITUTE …, priority 2023, published 2026)

Tests used:
[1] = tested on: PG-PS-induced arthritis in Lewis rats; assay: PG-PS-induced arthritis model in rats; type: in vivo
Excerpt: Intraperitoneal injection of PG-PS suspension can effectively induce chronic, erosive, and relapsing symptoms similar to human rheumatoid arthritis in rats, and is often used to evaluate the in vivo effectiveness of medicaments in the early discovery of arthritis medicaments. The specific steps were as follows:
On day 0, Lewis rats were randomly divided into 6 groups, with 5 rats in the first group and 10 rats in each group from the second group to the sixth group. All rats in the second to sixth groups were intraperitoneally injected with PG-PS (Lee Laboratories, PG-PS 10S, 5.1 mg/ml Rhamnose) to establish the model. The PG-PS injection dose v=15 μg/g×bw (rat weight, in g)/5.1 μg/μL.
On day 1, the model rats (the second to sixth groups) were randomly redivided into 5 groups, with 10 rats in each group. The animals in each group were given the corresponding medicament or vehicle by gavage once a day until the 29th day. […] Clinical observations and clinical scoring were performed daily during the administration period. The ankle diameter of each animal after modeling was subtracted from its ankle diameter before modeling to obtain the ankle diameter difference (delta ankle diameter). The area under the curve (AUC) was calculated by analyzing the ankle diameter difference of each animal in each group. The inhibition rate of each administration group relative to the blank vehicle control was calculated by the average AUC between groups.
Pathology: On day 30, the rats were euthanized. The two hind limbs of rats were stained with toluidine blue to evaluate the degree of joint damage in terms of inflammatory cell lesions, pannus formation, cartilage damage, bone resorption, and periosteal new bone formation, and the severity was scored on a scale from 0 to 7.

[2] = tested on: IgM-induced calcium signaling in RAMOS cells; assay: Antagonism of IgM-induced calcium signaling in RAMOS cells (FLIPR); type: cell-based; settings: Fluo-4D dye
Procedure: The specific test steps were as follows:
A. Ramos cells (ECACC) were seeded in a 384 experimental plate using cell culture medium (RPMI 1640 medium supplemented with 10% fetal bovine serum) at a density of 5×10^6 cells/mL, 20 μL per well.
C. The cell plate and the compound plate were placed into FLIPR. 10 μL was transferred from the compound plate by the FLIPR instrument and added to the cell plate. The cell plate was removed and incubated in a 37° C. incubator for 1 h.
D. One hour later, 40 μL of Fluo-4D dye (Life Technologies, formulated as 0.5× with 40 mL of HBSS and HEPES buffer) was added to the cell plate and incubated at 37° C. for 50 min.
E. 10 μL of IgM at 8×EC80 concentration was added, and the plate was read using FLIPR.
F. The IC50 results of the compounds were analyzed using EXCEL and Prism statistical software.

[3] = tested on: collagen-induced arthritis in DBA/1 mice; assay: Collagen-induced arthritis (CIA) model in mice; type: in vivo
Procedure: Clinical symptoms of arthritis were induced in mice by injecting collagen emulsion into the tail of mice. The specific steps were as follows:
DBA/1 mice were randomly divided into 6 groups, with 10 mice in each group except the blank control group (5 mice). […] The day of the first immunization was recorded as day 0, and the subsequent days were marked in sequence. DBA/1 mice were anesthetized with isoflurane and injected subcutaneously with 50 μl of the prepared collagen emulsion (containing 200 μg of CII) at the tail (2 cm to 3 cm from the base of the tail). On day 21, the same volume of collagen emulsion was injected into the tail in the same way.
On day 28, when the average clinical score reached 1 to 2, the mice were randomly redivided into 4 treatment groups (10 mice per group) and a blank vehicle control group (10 mice per group) according to body weight and score. […] The administration was performed once daily for 14 days by gavage at 10 mL/kg. After the administration, the clinical score curve of each animal in each group was analyzed to calculate the area under the curve (AUC). The inhibition rate of each administration group relative to the blank vehicle control was calculated based on the average AUC between groups.
Clinical observation: From 7 days before immunization to 21 days after immunization, the basic health status and weight changes of DBA/1 mice were observed daily (recorded twice a week). After day 22, the health status, disease incidence, and weight changes of the mice were observed daily (recorded every two days) until the end of the experiment.
When mice began to develop symptoms of arthritis (clinical symptoms of arthritis appeared), they were scored on a scale from 0 to 4 based on the severity of the lesions (redness, swelling, joint deformation), with a maximum score of 4 for each limb and a maximum score of 16 for each animal. The scoring was performed at least three times a week.
Pathology: On day 42, mice were euthanized. The two hind limbs of the mice were taken, soaked in 10% formalin solution, decalcified with formic acid solution, embedded in paraffin, sectioned, stained with hematoxylin-eosin (HE), and observed under a microscope. The degree of joint damage was evaluated from four aspects: inflammatory cell infiltration, pannus formation, cartilage damage, and bone resorption, and scored on a scale from 0 to 4.

[4] = tested on: anti-DNP IgE-induced passive cutaneous anaphylaxis in BALB/c mice; assay: Passive cutaneous anaphylaxis (PCA) model in mice induced with anti-DNP IgE; type: in vivo
Excerpt: Passive cutaneous anaphylaxis test, also known as PCA reaction, is a local allergic reaction caused by antibodies that bind to the same or different animal tissues. The PCA animal model in the present disclosure was a passive sensitization model in which IgE binds to specific receptors on skin mast cells. When allergens were stimulated, local mast cells released allergic mediators, thereby increasing local vascular permeability. […] The specific steps were as follows:
The PCA model in mice was induced using anti-DNP IgE. Specifically, BALB/c mice were divided into 9 groups, namely, a normal control group (no administration, injection, or feeding of any solvent), a model group (no administration, injection, or feeding of any solvent), a prednisone group (10 mg/kg, administered for 3 consecutive days, QD (once a day), prednisone concentration of 1 mg/mL, and an administration volume of 10 mL/kg), a cetirizine group (20 mg/kg, administered for 3 consecutive days, QD, cetirizine concentration of 2 mg/mL, and an administration volume of 10 mL/kg), a low-dose group and a medium-dose group for the test substance LOU-064 (15 mg/kg and 45 mg/kg, administered for 3 consecutive days, BID (twice a day), LOU-064 concentrations of 1.5 mg/mL and 4.5 mg/mL, and an administration volume of 10 mL/kg), and a low-dose group, a medium-dose group, and a high-dose group for compound (I) (15 mg/kg, 45 mg/kg, and 90 mg/kg, administered for 3 consecutive days, BID, compound (I) concentrations of 1.5 mg/mL, 4.5 mg/mL, and 9 mg/mL, and an administration volume of 10 mL/kg), with 9 mice in each group, administered by gavage for a total of 4 days. On day 3 of the administration, anti-DNP IgE (Sigma-Aldrich) was injected into the left ears of 8 groups of mice (no normal control group), and the same volume of PBS was injected into the right ears of 8 groups and the left and right ears of the normal control group to allow it to bind to mast cells. Then, 24 hours after the fourth day of anti-DNP IgE injection, a mixed solution of antigen (DNP-HAS, Sigma) and pigment Evan's Blue (Sigma) (0.25 mL/mouse, i.v.) was injected into the tail vein (the normal control group was injected with the same volume of the mixed solution of antigen and pigment Evan's Blue). The antigen reacted with the antibody attached to the mast cells, causing a local allergic reaction, increased local vascular permeability, and pigment penetration into the tissue. The reaction intensity was determined by measuring the local pigment content 30 minutes later. The dye was extracted from the left and right ears, and the absorbance of Evan's blue was measured at a specific wavelength. […] The efficacy effects of each test substances in the PCA animal model were evaluated.

**Q.** Which “inhibition rate (AUC of ankle diameter difference vs blank vehicle control)” value ([1]; 3 mg/kg once a day by gavage until the 29th day) does the source give for `C=CC(=O)Nc1cccc(Nc2nc(Nc3ccc(OCCOC)cc3)ncc2F)c1` [CC-292, reference compound] here?
**A.** Its value is −0.1%.

**Q.** What about the “joint tissue lesions (pathology)” value ([1]; 3 mg/kg, day 30) of the same molecule?
**A.** The value was “more severe”.

**Q.** What about the IC50 [2] of the same molecule?
**A.** The IC50 was 171 ± 4.03 nM.

**Q.** What about the “histopathological score compared with the blank vehicle control group” value ([3]; 3 mg/kg) of the same molecule?
**A.** The value was “not significantly different”.

**Q.** And the “inflammation inhibition rate (AUC of clinical score vs blank vehicle control)” value ([3]; 3 mg/kg once daily by gavage for 14 days)?
**A.** Its value is 29.1%.

**Q.** What about the “pathology of foot joint bone tissue” value ([3]; 3 mg/kg, day 42) of the same molecule?
**A.** The value was “certain inflammation and more bone tissue damage”.

**Q.** For `C=CC(=O)N(C)CCOc1c(N)ncnc1-c1cc(F)cc(NC(=O)c2ccc(C3CC3)cc2F)c1C` [LOU-064, reference compound], which “Concentration of Evan's Blue, Left ear, Average value” (from here on “Concentration of Evan's Blue”) ([4]; 15 mg/kg BID by gavage) is on record?
**A.** Its value is 24.45 µg/mL.

**Q.** And the “Concentration of Evan's Blue” value ([4]; 45 mg/kg BID by gavage)?
**A.** Its value is 17.24 µg/mL.

**Q.** With `C[C@]12C=CC(=O)C=C1CC[C@@H]1[C@@H]2C(=O)C[C@@]2(C)[C@H]1CC[C@]2(O)C(=O)CO` [Prednisone, prednisone, reference compound] as the molecule, how does the “Concentration of Evan's Blue” value ([4]; 10 mg/kg QD by gavage) read?
**A.** The value was 25.36 µg/mL.

**Q.** With `O=C(O)COCCN1CCN(C(c2ccccc2)c2ccc(Cl)cc2)CC1` (stereo not shown) [Cetirizine, cetirizine, reference compound] as the molecule, how does the “Concentration of Evan's Blue” value ([4]; 20 mg/kg QD by gavage) read?
**A.** Its value is 22.70 µg/mL.
